US10682316B2 (NOVA SOUTHEASTERN UNIVERSITY, priority 2010, dated 2020)
Values joined by “and” are separate entries in the source; they are usually repeats but may differ in a detail not shown here. Identical values can stand only once. “Also recorded” adds a separate entry of the source. Like-named read-outs stand apart in the source and are kept apart here.

Tests used:
[1] = Visual observation of discoloration/stability after processing; format: physicochemical; conditions: epinephrine bitartrate compared with epinephrine base
Text: The main problem was discoloration (a brown color formed) due to degradation.

[2] = Particle size measurement before and after size reduction (Mastersizer, NiComp 370, Zetasizer); format: physicochemical; conditions: epinephrine base
Protocol: These techniques involve the use of oversaturated solutions of various solvents, particularly water and isopropanol, at various temperatures and pressures ranging from about 8,000 psi to 30,000 psi and to about 8.3° to 43.3° C. under various passes. […] The particles were lyophilized (freeze-dried) using a bench top lyophilizer (ART Inc.).

Row | SMILES | Amount Dissolved % (solubility in acetone) [%] | Amount Dissolved % (solubility in acetonitrile) [%] | Amount Dissolved % (solubility in choloroform) [%] | Amount Dissolved % (solubility in dichloromethane (DCM)) [%] | Amount Dissolved % (solubility in ethyl acetate) [%] | Amount Dissolved % (solubility in hexane) [%] | Amount Dissolved % (solubility in isopropyl alcohol) [%] | Amount Dissolved % (solubility in methanol) [%] | Amount Dissolved % (solubility in tetrahydrofuran (THF)) [%] | Stability / discoloration under fabrication conditions (nanomilling) [1] | mean±SD size before size reduction ([2]; Mastersizer (FIG. 3)) [μm] | Size Before Fabrication (nm) ([2]; Mastersizer, three measurements and mean) | Amount Dissolved % (solubility in water) [%]
1 | CNC[C@H](O)c1ccc(O)c(O)c1 [Epinephrine Bit, epinephrine bitartrate] | 1.56 | 0.77 | 0.09 | 0.00 | 0.63 | 0.03 | 0.62 | 10.45 | 7.76 | more stable than the epinephrine base; also recorded: did not show any discoloration | – | – | –
2 | CNC[C@H](O)c1ccc(O)c(O)c1 [Epinephrine Base, epinephrine] | – | – | – | – | – | – | – | – | – | – | 32.91±0.33 | 33030 nm and 32530 nm and 33160 nm | 2.67
